Measured values as given in ChEMBL document CHEMBL1159256, “Acetylcholinesterase inhibition by territrem B derivatives” (J Nat Prod, 1995).
pIC50: −log10 of the molar value. Calls of active or inactive are those of the source. The calls are words filed in the database; no cut-off is given here.

Legend:
[1] = molecular target: Acetylcholinesterase (Electrophorus electricus) (UniProt O42275); test: (§1) Inhibition of electric eel AChE by Ellman's method
Acetylcholinesterase = Acetylcholinesterase (Electrophorus electricus, UniProt O42275); test: as §1; settings: read-out: I50
Chain of Acetylcholinesterase (O42275 whole entry): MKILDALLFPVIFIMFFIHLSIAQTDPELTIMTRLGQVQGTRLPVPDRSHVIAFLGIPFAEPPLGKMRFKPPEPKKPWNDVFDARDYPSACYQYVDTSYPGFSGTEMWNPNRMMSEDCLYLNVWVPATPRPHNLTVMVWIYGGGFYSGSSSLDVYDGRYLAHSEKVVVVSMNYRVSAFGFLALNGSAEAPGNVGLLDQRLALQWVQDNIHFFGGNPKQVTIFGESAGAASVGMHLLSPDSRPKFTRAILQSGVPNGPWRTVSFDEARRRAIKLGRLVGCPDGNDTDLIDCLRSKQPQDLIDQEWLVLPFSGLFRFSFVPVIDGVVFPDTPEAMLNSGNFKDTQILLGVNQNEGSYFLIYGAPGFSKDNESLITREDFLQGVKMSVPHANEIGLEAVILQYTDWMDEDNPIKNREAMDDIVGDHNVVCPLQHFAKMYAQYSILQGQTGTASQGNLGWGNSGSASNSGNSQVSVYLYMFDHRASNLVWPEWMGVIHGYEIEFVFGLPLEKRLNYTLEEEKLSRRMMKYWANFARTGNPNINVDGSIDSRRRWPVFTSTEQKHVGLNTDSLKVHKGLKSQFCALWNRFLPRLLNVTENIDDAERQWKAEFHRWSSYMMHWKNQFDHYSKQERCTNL

Chain of Acetylcholinesterase (Electrophorus electricus) (O42275 24-633 limits assumed): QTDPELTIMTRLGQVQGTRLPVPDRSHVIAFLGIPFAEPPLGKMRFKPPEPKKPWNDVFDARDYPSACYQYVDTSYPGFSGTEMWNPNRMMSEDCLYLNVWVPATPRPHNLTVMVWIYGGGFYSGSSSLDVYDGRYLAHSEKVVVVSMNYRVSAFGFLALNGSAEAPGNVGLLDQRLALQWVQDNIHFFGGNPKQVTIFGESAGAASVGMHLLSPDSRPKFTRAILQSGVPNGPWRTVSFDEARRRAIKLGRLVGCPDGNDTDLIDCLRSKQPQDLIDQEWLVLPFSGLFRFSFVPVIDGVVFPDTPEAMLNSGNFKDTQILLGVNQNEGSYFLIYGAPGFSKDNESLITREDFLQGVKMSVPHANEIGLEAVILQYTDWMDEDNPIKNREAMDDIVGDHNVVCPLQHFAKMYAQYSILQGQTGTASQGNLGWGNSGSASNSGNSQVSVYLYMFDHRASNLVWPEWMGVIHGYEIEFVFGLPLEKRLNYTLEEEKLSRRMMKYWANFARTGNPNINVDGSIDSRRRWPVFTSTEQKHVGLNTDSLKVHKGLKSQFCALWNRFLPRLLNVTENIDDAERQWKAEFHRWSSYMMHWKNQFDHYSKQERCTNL

Row | SMILES | Activity [1] | pIC50 (Acetylcholinesterase) | inhibition ([1]; concentration not given here) [%]
1 | COc1cc(CCC2=C(C(=O)O)C[C@]3(O)[C@@]4(C)C(=O)CCC(C)(C)[C@]4(O)CC[C@@]3(C)O2)cc(OC)c1OC | inactive | – | –
2 | COc1cc(-c2cc3c(c(=O)o2)C[C@]2(O)[C@@]4(C)C(=O)C=C[C@](C)(CI)[C@]4(O)CC[C@@]2(C)O3)cc(OC)c1OC [4BETA-IODOMETHYL-4BETA-DEMETHYL-TERRITREM B] | – | 6.54 | –
3 | COc1cc(-c2cc3c(c(=O)o2)C[C@]2(O)[C@@]4(C)C(=O)CCC(C)(C)[C@]4(O)CC[C@@]2(C)O3)cc(OC)c1OC [2,3-DIHYDROTERRITREM B] | – | 5.66 | –
4 | COc1cc(-c2cc3c(c(=O)o2)C[C@]2(O)[C@@]4(C)C(=O)[C@H]5O[C@H]5C(C)(C)[C@]4(O)CC[C@@]2(C)O3)cc(OC)c1OC [2,3-EPOXYTERRITREM B] | – | 6.77 | –
5 | COc1cc(-c2cc3c(c(=O)o2)C[C@]2(O)[C@@]4(C)[C@H](O)C=CC(C)(C)[C@]4(O)CC[C@@]2(C)O3)cc(OC)c1OC [1-DIHYDROTERRITREM B] | – | 4.10 | –
6 | COc1cc(-c2cc3c(c(=O)o2)C[C@]2(O)[C@@]4(C)C(=O)C=CC(C)(C)[C@]4(O)CC[C@@]2(C)O3)cc(OC)c1OC [TERRITREM B] | – | 6.59 | 50
